ChEMBL document CHEMBL5537143, “Synthesis and antimicrobial properties of guanidine-functionalized labdane type diterpenoids” (Eur J Med Chem, 2024)
Values after ≈ are worked out from the molar mass of the structure shown.

Key:
Candida albicans [1] = experiment: Antifungal activity against Candida albicans ATCC 90028 assessed as reduction in fungal growth incubated for 48 hrs by CLSI based analysis; assay type: functional
Candida albicans [2] = experiment: Antifungal activity against Candida albicans ATCC 10231 assessed as reduction in fungal growth incubated for 48 hrs by CLSI based analysis; assay type: functional; conditions: read-out: MIC100
Pseudomonas aeruginosa [3] = experiment: Antimicrobial activity against Pseudomonas aeruginosa 27853 assessed as inhibition of microbial growth at 128 microg/ml incubated for 24 hrs by broth-microdilution assay relative to control; assay type: functional
Staphylococcus aureus [4] = experiment: Antimicrobial activity against Staphylococcus aureus 29213 assessed as inhibition of microbial growth incubated for 24 hrs by broth-microdilution assay; assay type: functional
Staphylococcus aureus [5] = experiment: Synergistic antimicrobial activity against methicillin resistant Staphylococcus aureus 43300 assessed as fractional inhibitory concentration index incubated for 24 hrs in presence of Oxacillin by checkerboard assay; assay type: functional
[6] = Acute toxicity in zebrafish embryo preincubated with compound for 24 hrs and measured after 48 to 96 hrs post fertilization; parameters: species or system Danio rerio; conditions: in vivo
Staphylococcus aureus [7] = experiment: Antimicrobial activity against Staphylococcus aureus ATCC 29213 assessed as inhibition of microbial growth incubated for 24 hrs by broth-microdilution assay; assay type: functional; conditions: Staphylococcus aureus, ATCC 29213, read-out: MIC100
[8] = Acute toxicity in zebrafish embryo assessed as mortality rate at 2 microg/ml preincubated with compound for 24 hrs and measured after 48 to 72 hrs post fertilization; parameters: species or system Danio rerio; conditions: in vivo, at 2 µg/mL
[9] = Acute toxicity in zebrafish embryo preincubated with compound for 24 hrs and measured after 24 hrs post fertilization; parameters: species or system Danio rerio; conditions: in vivo
Klebsiella pneumoniae [10] = experiment: Antimicrobial activity against Carbapenem-resistant Klebsiella pneumoniae ATCC BAA1705 assessed as inhibition of microbial growth incubated for 24 hrs by broth-microdilution assay; assay type: functional
Klebsiella pneumoniae [11] = experiment: Antimicrobial activity against Klebsiella pneumoniae ATCC 13883 assessed as inhibition of microbial growth incubated for 24 hrs by broth-microdilution assay; assay type: functional; conditions: read-out: MIC
[12] = Acute toxicity in zebrafish embryo assessed as mortality rate at 32 microg/ml preincubated with compound for 24 hrs and measured after 24 hrs post fertilization; parameters: species or system Danio rerio; conditions: in vivo, at 32 µg/mL
[13] = Acute toxicity in zebrafish embryo assessed as mortality rate at 4 microg/ml preincubated with compound for 24 hrs and measured after 48 to 72 hrs post fertilization; parameters: species or system Danio rerio; conditions: in vivo, at 4 µg/mL
Staphylococcus aureus [14] = experiment: Antimicrobial activity against Staphylococcus aureus ATCC 43300 assessed as inhibition of microbial growth incubated for 24 hrs by broth-microdilution assay; assay type: functional; conditions: Staphylococcus aureus, ATCC 43300, read-out: MIC100
Candida albicans [15] = experiment: Synergistic antifungal activity against Candida albicans ATCC 10231 assessed as reduction in fungal growth incubated for 48 hrs in presence of Voriconazole by CLSI based analysis; assay type: functional; conditions: read-out: MIC100
[16] = Acute toxicity in zebrafish embryo assessed as mortality rate at 32 microg/ml preincubated with compound for 24 hrs and measured after 48 to 72 hrs post fertilization; parameters: species or system Danio rerio; conditions: in vivo, at 32 µg/mL
Pseudomonas aeruginosa [17] = experiment: Antimicrobial activity against Pseudomonas aeruginosa PAO1 assessed as inhibition of microbial growth incubated for 24 hrs by broth-microdilution assay; assay type: functional
Klebsiella pneumoniae [18] = experiment: Antimicrobial activity against Klebsiella pneumoniae ATCC BAA1705 assessed as inhibition of microbial growth incubated for 24 hrs by broth-microdilution assay; assay type: functional; conditions: for MIC: read-out: MIC
Candida albicans [19] = experiment: Synergistic antifungal activity against Candida albicans ATCC 10231 assessed as fractional inhibitory concentration index incubated for 48 hrs in presence of Voriconazole by CLSI based analysis; assay type: functional
[20] = Acute toxicity in zebrafish embryo assessed as mortality rate at 8 microg/ml preincubated with compound for 24 hrs and measured after 48 to 72 hrs post fertilization; parameters: species or system Danio rerio; conditions: in vivo, at 8 µg/mL
Candida albicans [21] = experiment: Synergistic antifungal activity against Candida albicans ATCC 10231 assessed as Voriconazole MIC incubated for 48 hrs by CLSI based analysis; assay type: functional; conditions: read-out: MIC100
Pseudomonas aeruginosa [22] = experiment: Antimicrobial activity against Pseudomonas aeruginosa PAO1 assessed as inhibition of microbial growth at 128 microg/ml incubated for 24 hrs by broth-microdilution assay relative to control; assay type: functional
Pseudomonas aeruginosa [23] = experiment: Antimicrobial activity against Pseudomonas aeruginosa ATCC 27853 assessed as inhibition of microbial growth incubated for 24 hrs by broth-microdilution assay; assay type: functional
[24] = Acute toxicity in zebrafish embryo assessed as mortality rate at 0.7 microg/ml preincubated with compound for 24 hrs and measured after 48 to 72 hrs post fertilization; parameters: species or system Danio rerio; conditions: in vivo, at 0.7 µg/mL
Klebsiella pneumoniae [25] = experiment: Antimicrobial activity against Carbapenem -resistant Klebsiella pneumoniae ATCC 13883 assessed as inhibition of microbial growth incubated for 24 hrs by broth-microdilution assay; assay type: functional
Klebsiella pneumoniae [26] = experiment: Synergistic antimicrobial activity against Klebsiella pneumoniae ATCC BAA1705 assessed as fractional inhibitory concentration index incubated for 24 hrs in presence of Imipenem by checkerboard assay; assay type: functional
Klebsiella pneumoniae [27] = experiment: Synergistic antimicrobial activity against Klebsiella pneumoniae ATCC BAA1705 assessed as Imipenem MIC incubated for 24 hrs by checkerboard assay; assay type: functional; conditions: read-out: MIC100
[28] = tested on: Staphylococcus epidermidis; experiment: Antimicrobial activity against Staphylococcus epidermidis ATCC 35984 assessed as inhibition of microbial growth incubated for 24 hrs by broth-microdilution assay; assay type: functional; conditions: Staphylococcus epidermidis, ATCC 35984, read-out: MIC
Staphylococcus aureus [29] = experiment: Antimicrobial activity against methicillin resistant Staphylococcus aureus 43300 assessed as inhibition of microbial growth incubated for 24 hrs by broth-microdilution assay; assay type: functional; conditions: read-out: MIC
Klebsiella pneumoniae [30] = experiment: Synergistic antimicrobial activity against Klebsiella pneumoniae ATCC BAA1705 assessed as inhibition of microbial growth incubated for 24 hrs in presence of Imipenem by checkerboard assay; assay type: functional; conditions: read-out: MIC100
Staphylococcus aureus [31] = experiment: Synergistic antimicrobial activity against methicillin resistant Staphylococcus aureus 43300 assessed as inhibition of microbial growth incubated for 24 hrs in presence of Oxacillin by checkerboard assay; assay type: functional; conditions: read-out: MIC100
[32] = Acute toxicity in zebrafish embryo assessed as mortality rate at 16 microg/ml preincubated with compound for 24 hrs and measured after 48 to 72 hrs post fertilization; parameters: species or system Danio rerio; conditions: in vivo, at 16 µg/mL
[33] = Acute toxicity in zebrafish embryo assessed as mortality rate at 16 microg/ml preincubated with compound for 24 hrs and measured after 24 hrs post fertilization; parameters: species or system Danio rerio; conditions: in vivo, at 16 µg/mL
[34] = tested on: Staphylococcus epidermidis; experiment: Antimicrobial activity against Staphylococcus epidermidis ATCC 12228 assessed as inhibition of microbial growth incubated for 24 hrs by broth-microdilution assay; assay type: functional; conditions: Staphylococcus epidermidis, ATCC 12228, read-out: MIC
Staphylococcus aureus [35] = experiment: Synergistic antimicrobial activity against methicillin resistant Staphylococcus aureus 43300 assessed as Oxacillin MIC incubated for 24 hrs by checkerboard assay; assay type: functional; conditions: read-out: MIC100
[36] = Acute toxicity in zebrafish embryo assessed as mortality rate at 8 microg/ml preincubated with compound for 24 hrs and measured after 96 hrs post fertilization; parameters: species or system Danio rerio; conditions: in vivo, at 8 µg/mL
[37] = Acute toxicity in zebrafish embryo assessed as mortality rate at 16 microg/ml preincubated with compound for 24 hrs and measured after 96 hrs post fertilization; parameters: species or system Danio rerio; conditions: in vivo, at 16 µg/mL
[38] = Acute toxicity in zebrafish embryo assessed as mortality rate at 2 microg/ml preincubated with compound for 24 hrs and measured after 96 hrs post fertilization; parameters: species or system Danio rerio; conditions: in vivo, at 2 µg/mL
[39] = Acute toxicity in zebrafish embryo assessed as mortality rate at 8 microg/ml preincubated with compound for 24 hrs and measured after 24 hrs post fertilization; parameters: species or system Danio rerio; conditions: in vivo, at 8 µg/mL
[40] = Acute toxicity in zebrafish embryo assessed as mortality rate at 32 microg/ml preincubated with compound for 24 hrs and measured after 96 hrs post fertilization; parameters: species or system Danio rerio; conditions: in vivo, at 32 µg/mL
[41] = Acute toxicity in zebrafish embryo preincubated with compound for 24 hrs and measured after 96 hrs post fertilization; parameters: species or system Danio rerio; conditions: in vivo
[42] = Acute toxicity in zebrafish embryo assessed as mortality rate at 4 microg/ml preincubated with compound for 24 hrs and measured after 96 hrs post fertilization; parameters: species or system Danio rerio; conditions: in vivo, at 4 µg/mL
[43] = Acute toxicity in zebrafish embryo assessed as mortality rate at 4 microg/ml preincubated with compound for 24 hrs and measured after 24 hrs post fertilization; parameters: species or system Danio rerio; conditions: in vivo, at 4 µg/mL
[44] = Acute toxicity in zebrafish embryo assessed as mortality rate at 0.7 microg/ml preincubated with compound for 24 hrs and measured after 96 hrs post fertilization; parameters: species or system Danio rerio; conditions: in vivo, at 0.7 µg/mL
[45] = Acute toxicity in zebrafish embryo preincubated with compound for 24 hrs and measured after 48 to 72 hrs post fertilization; parameters: species or system Danio rerio; conditions: in vivo

C[C@@H]1[C@H](O)[C@@H](C)/C=C/C=C/C=C/C=C/C=C/C=C/C=C/[C@H](O[C@@H]2O[C@H](C)[C@@H](O)[C@H](N)[C@@H]2O)C[C@@H]2O[C@](O)(C[C@@H](O)C[C@@H](O)[C@H](O)CC[C@@H](O)C[C@@H](O)CC(=O)O[C@H]1C)C[C@H](O)[C@H]2C(=O)O [AMPHOTERICIN B]
MIC (Candida albicans [1]; read-out: MIC100): 4 µg/mL (≈ 4.33 µM)
MIC (Candida albicans [2]): 4 µg/mL (≈ 4.33 µM)

CC1(C)CCC[C@]2(C)[C@H]3CC[C@@](C)(CC(=O)NC(=N)N)O[C@]3(C)CC[C@@H]12
inhibition at 128 µg/mL (Pseudomonas aeruginosa [3]): 50%
MIC (Staphylococcus aureus [4]): 4 µg/mL
fractional inhibitory concentration index (FICI) (Staphylococcus aureus [5]): 0.55
LC50 [6]: 11.5 µg/mL (≈ 31.6 µM)
MIC (Staphylococcus aureus [7]): 8 µg/mL
mortality at 2 microg/ml [8]: 0%
LC50 at 24 h [9]: 93.4 µg/mL (≈ 257 µM)
MIC (Klebsiella pneumoniae [10]): 32 µg/mL
MIC (Klebsiella pneumoniae [11]): 16 µg/mL
mortality at 24 h, 32 microg/ml [12]: 5%
mortality at 4 microg/ml [13]: 0%
MIC (Staphylococcus aureus [14]): 8 µg/mL
MIC (Candida albicans [15]): 2 µg/mL
mortality at 24 h, 32 microg/ml [16]: 100%
MIC65 (Pseudomonas aeruginosa [17]): 128 µg/mL
MIC (Candida albicans [1]; read-out: MIC): 16 µg/mL (≈ 44 µM)
MIC (Klebsiella pneumoniae [18]): 32 µg/mL
fractional inhibitory concentration index (FICI) (Candida albicans [19]): 0.129
mortality at 24 h, 8 microg/ml [20]: 0%
MIC (Candida albicans [2]): 16 µg/mL (≈ 44 µM)
MIC (Candida albicans [21]): 0.125 µg/mL
inhibition at 128 µg/mL (Pseudomonas aeruginosa [22]): 65%
MIC50 (Pseudomonas aeruginosa [23]; Pseudomonas aeruginosa, ATCC 27853): 128 µg/mL
mortality at 24 h, 0.7 microg/ml [24]: 5%
MIC (Klebsiella pneumoniae [25]): 32 µg/mL
fractional inhibitory concentration index (FICI) (Klebsiella pneumoniae [26]): 0.6
MIC (Klebsiella pneumoniae [27]): 2 µg/mL
MIC [28]: 4 µg/mL
MIC (Staphylococcus aureus [29]): 4 µg/mL
MIC (Klebsiella pneumoniae [30]): 16 µg/mL
MIC (Staphylococcus aureus [31]): 2 µg/mL
mortality at 16 microg/ml [32]: 100%
mortality at 24 h, 16 microg/ml [33]: 10%
MIC [34]: 4 µg/mL
MIC (Staphylococcus aureus [35]): 0.5 µg/mL

CC1(C)CCC[C@]2(C)[C@H]3CC[C@](C)(CC(=O)NC(=N)N)O[C@]3(C)CC[C@@H]12
mortality at 96 h, 8 microg/ml [36]: 95%
inhibition at 128 µg/mL (Pseudomonas aeruginosa [3]): 70%
MIC (Staphylococcus aureus [4]): 4 µg/mL
fractional inhibitory concentration index (FICI) (Staphylococcus aureus [5]): 0.512
MIC (Staphylococcus aureus [7]): 8 µg/mL
mortality at 96 h, 16 microg/ml [37]: 100%
LC50 at 24 h [9]: 14 µg/mL (≈ 38.5 µM)
MIC (Klebsiella pneumoniae [10]): 32 µg/mL
mortality at 96 h, 2 microg/ml [38]: 0%
MIC (Klebsiella pneumoniae [11]): 16 µg/mL
mortality at 24 h, 32 microg/ml [12]: 95%
mortality at 24 h, 8 microg/ml [39]: 15%
mortality at 4 microg/ml [13]: 0%
MIC (Staphylococcus aureus [14]): 8 µg/mL
MIC (Candida albicans [15]): 4 µg/mL
mortality at 96 h, 32 microg/ml [40]: 100%
LC50 at 96 h [41]: 6 µg/mL (≈ 16.5 µM)
MIC75 (Pseudomonas aeruginosa [17]): 128 µg/mL
MIC (Candida albicans [1]; read-out: MIC): 16 µg/mL (≈ 44 µM)
MIC (Klebsiella pneumoniae [18]): 32 µg/mL
fractional inhibitory concentration index (FICI) (Candida albicans [19]): 0.254
mortality at 24 h, 8 microg/ml [20]: 35%
MIC (Candida albicans [2]): 16 µg/mL (≈ 44 µM)
mortality at 96 h, 4 microg/ml [42]: 5%
MIC (Candida albicans [21]): 0.125 µg/mL
inhibition at 128 µg/mL (Pseudomonas aeruginosa [22]): 75%
MIC70 (Pseudomonas aeruginosa [23]): 128 µg/mL
MIC (Klebsiella pneumoniae [25]): 32 µg/mL
fractional inhibitory concentration index (FICI) (Klebsiella pneumoniae [26]): 0.6
MIC (Klebsiella pneumoniae [27]): 2 µg/mL
MIC [28]: 4 µg/mL
mortality at 24 h, 4 microg/ml [43]: 0%
mortality at 96 h, 0.7 microg/ml [44]: 0%
MIC (Staphylococcus aureus [29]): 4 µg/mL
MIC (Klebsiella pneumoniae [30]): 16 µg/mL
MIC (Staphylococcus aureus [31]): 4 µg/mL
mortality at 16 microg/ml [32]: 100%
mortality at 24 h, 16 microg/ml [33]: 75%
MIC [34]: 4 µg/mL
MIC (Staphylococcus aureus [35]): 0.125 µg/mL
LC50 at 24 h [45]: 8.1 µg/mL (≈ 22.3 µM)

GENTAMICIN
MIC100 (Klebsiella pneumoniae [18]): 4 µg/mL
